The source of these data is patent US8802894B2, “Process for the preparation of aqueous solutions of methylglycine-N,N-diacetic acid trialkali metal salts” (BASF SE, priority 2012, dated 2014).

Series [1] in a line: solubility limit / achievable concentration in water. The series is classed as physicochemical.
Series [2] is described as follows: saturation concentration of aqueous solutions, L-enantiomer versus D,L-racemate. The series is classed as physicochemical. As to conditions: aqueous solution. An excerpt: The L-enantiomer of α-alanine is available at low cost and leads, through Strecker synthesis, as a result of reaction with hydrocyanic acid and formaldehyde in aqueous solution, to L-α-alanine-N,N-diacetonitrile, and saponification thereof with a base leads to aqueous solutions which not only have a higher saturation concentration of the L-enantiomer compared to the D,L-racemate of the MGDA trialkali metal salts, but which also produce a readily crystallizing solid by means of crystallization.

Turning to `C[C@H](N)C(=O)O` [α-alanine], the solubility limit result in series [1] is “ca. 18 % by weight”.

As for “methylglycine-N,N-diacetic acid trialkali metal salt [L-MGDA trialkali metal salt]”, the “solubility compared to the racemate” value in series [2] is “higher”.
